Assay results as given in ChEMBL document CHEMBL1208786, “1-Methyl-1H-pyrrole-2-carbonitrile containing tetrahydronaphthalene derivatives as non-steroidal progesterone receptor antagonists” (Bioorg Med Chem Lett, 2010).
Activity calls are given as the source filed them. The calls are words filed in the database; no cut-off is given here.

How the values were obtained:
Progesterone receptor = target: T1, Progesterone receptor (Homo sapiens, UniProt P06401); assay: Antagonist activity at progesterone receptor in human T47D cells assessed as inhibition of progesterone-induced alkaline phosphatase activity; format: functional, cell-based
T1 sequence (P06401 whole entry): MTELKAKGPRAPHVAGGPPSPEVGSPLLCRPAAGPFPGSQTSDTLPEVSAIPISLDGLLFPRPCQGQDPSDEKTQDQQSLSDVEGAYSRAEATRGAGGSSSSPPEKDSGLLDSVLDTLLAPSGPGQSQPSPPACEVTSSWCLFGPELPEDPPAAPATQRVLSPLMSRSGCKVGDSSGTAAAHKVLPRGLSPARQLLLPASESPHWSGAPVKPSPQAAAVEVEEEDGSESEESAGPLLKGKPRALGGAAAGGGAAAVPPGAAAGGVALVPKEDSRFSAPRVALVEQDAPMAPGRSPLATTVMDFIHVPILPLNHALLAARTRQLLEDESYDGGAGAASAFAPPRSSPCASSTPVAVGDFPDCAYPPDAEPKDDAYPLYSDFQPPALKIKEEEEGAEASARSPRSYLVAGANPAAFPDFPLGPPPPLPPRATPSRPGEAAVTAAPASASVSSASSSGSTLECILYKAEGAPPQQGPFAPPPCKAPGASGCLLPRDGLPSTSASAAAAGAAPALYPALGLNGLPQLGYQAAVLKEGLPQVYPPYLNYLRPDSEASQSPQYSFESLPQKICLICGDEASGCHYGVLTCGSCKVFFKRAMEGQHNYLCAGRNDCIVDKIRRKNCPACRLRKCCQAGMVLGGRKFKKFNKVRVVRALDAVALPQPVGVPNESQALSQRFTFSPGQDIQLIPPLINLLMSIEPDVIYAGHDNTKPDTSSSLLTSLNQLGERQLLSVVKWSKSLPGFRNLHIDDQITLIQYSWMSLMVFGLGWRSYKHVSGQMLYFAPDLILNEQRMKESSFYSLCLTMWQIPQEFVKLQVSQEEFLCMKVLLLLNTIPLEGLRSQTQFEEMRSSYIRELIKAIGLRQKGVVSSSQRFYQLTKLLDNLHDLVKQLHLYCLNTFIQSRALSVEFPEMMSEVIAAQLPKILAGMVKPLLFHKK

[1] = target: T2, Estrogen receptor (Homo sapiens) (UniProt P03372); assay: Antagonist activity at estrogen receptor ligand binding domain up to 10 uM by two hybrid assay
T2 sequence (whole entry): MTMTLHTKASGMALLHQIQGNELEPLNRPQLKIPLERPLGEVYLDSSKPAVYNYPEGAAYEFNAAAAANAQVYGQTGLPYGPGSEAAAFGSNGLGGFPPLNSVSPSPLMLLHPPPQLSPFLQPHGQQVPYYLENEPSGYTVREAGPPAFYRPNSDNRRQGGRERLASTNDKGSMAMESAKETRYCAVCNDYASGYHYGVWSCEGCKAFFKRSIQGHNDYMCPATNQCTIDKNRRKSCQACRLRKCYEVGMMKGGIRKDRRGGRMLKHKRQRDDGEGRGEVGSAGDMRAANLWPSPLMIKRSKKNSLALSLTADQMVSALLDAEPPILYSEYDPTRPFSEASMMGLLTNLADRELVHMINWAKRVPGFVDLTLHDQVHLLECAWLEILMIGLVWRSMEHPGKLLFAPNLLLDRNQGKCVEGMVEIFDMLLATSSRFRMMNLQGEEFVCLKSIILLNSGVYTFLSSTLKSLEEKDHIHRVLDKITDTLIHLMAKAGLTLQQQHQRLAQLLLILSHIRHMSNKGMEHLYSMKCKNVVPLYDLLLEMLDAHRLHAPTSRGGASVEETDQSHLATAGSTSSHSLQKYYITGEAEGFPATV

Androgen receptor = target: T3, Androgen receptor (Homo sapiens, UniProt P10275); assay: Antagonist activity at androgen receptor ligand binding domain by two hybrid assay
T3 sequence (P10275 whole entry): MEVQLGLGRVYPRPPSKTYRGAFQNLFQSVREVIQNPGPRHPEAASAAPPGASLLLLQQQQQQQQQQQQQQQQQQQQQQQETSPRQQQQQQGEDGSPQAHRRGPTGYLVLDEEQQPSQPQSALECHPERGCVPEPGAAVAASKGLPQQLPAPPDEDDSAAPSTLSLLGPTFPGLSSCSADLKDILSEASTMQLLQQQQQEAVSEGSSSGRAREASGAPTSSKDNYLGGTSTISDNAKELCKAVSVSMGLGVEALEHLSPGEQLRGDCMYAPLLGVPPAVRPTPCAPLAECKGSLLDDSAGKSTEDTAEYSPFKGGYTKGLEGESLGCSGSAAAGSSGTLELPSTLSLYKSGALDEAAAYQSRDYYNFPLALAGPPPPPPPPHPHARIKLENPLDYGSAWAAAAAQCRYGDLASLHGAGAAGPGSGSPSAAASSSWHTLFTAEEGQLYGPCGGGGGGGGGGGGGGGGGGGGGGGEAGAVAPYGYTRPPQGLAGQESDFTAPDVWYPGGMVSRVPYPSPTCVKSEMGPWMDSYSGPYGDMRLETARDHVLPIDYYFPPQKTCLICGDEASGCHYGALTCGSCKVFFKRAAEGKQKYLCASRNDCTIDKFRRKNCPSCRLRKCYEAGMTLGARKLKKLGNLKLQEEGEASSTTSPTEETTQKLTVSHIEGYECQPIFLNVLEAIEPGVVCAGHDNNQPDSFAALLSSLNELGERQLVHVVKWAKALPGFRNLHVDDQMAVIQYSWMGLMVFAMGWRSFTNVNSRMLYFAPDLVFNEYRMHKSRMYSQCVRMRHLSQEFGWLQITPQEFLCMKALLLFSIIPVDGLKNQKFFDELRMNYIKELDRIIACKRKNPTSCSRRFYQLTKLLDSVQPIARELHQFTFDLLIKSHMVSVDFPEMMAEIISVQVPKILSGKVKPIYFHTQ

[2] = target: T4, Mineralocorticoid receptor (Homo sapiens) (UniProt P08235); assay: Antagonist activity at mineralocorticoid receptor ligand binding domain up to 10 uM by two hybrid assay
T4 sequence (whole entry): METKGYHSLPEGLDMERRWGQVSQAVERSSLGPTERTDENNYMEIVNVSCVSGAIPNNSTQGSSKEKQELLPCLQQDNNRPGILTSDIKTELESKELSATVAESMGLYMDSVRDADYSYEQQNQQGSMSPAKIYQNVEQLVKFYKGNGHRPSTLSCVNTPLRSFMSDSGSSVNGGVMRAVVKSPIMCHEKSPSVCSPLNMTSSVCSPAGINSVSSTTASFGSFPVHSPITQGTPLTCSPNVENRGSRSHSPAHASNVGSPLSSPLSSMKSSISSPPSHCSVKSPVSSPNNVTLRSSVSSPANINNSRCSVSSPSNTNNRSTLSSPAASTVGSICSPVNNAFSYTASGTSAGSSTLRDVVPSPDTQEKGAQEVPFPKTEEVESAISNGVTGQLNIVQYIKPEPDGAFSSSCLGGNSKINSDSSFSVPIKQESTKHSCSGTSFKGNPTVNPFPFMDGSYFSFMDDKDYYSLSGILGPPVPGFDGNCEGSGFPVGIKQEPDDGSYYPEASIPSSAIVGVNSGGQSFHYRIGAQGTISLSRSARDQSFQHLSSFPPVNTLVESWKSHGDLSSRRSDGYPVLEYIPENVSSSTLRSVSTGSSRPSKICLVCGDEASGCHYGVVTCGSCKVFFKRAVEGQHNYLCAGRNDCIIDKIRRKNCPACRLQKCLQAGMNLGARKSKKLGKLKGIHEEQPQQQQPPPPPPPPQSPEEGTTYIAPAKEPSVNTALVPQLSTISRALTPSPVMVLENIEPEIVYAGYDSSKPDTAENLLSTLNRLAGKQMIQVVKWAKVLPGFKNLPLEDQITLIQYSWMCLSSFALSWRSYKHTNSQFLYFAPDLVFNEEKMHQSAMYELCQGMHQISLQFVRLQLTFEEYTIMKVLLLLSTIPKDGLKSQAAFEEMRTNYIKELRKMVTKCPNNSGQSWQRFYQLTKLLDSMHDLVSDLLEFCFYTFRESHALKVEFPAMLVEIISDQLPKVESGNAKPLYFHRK

[3] = target: T5, Glucocorticoid receptor (Homo sapiens) (UniProt P04150); assay: Antagonist activity at glucocorticoid receptor ligand binding domain up to 10 uM by two hybrid assay
T5 sequence (whole entry): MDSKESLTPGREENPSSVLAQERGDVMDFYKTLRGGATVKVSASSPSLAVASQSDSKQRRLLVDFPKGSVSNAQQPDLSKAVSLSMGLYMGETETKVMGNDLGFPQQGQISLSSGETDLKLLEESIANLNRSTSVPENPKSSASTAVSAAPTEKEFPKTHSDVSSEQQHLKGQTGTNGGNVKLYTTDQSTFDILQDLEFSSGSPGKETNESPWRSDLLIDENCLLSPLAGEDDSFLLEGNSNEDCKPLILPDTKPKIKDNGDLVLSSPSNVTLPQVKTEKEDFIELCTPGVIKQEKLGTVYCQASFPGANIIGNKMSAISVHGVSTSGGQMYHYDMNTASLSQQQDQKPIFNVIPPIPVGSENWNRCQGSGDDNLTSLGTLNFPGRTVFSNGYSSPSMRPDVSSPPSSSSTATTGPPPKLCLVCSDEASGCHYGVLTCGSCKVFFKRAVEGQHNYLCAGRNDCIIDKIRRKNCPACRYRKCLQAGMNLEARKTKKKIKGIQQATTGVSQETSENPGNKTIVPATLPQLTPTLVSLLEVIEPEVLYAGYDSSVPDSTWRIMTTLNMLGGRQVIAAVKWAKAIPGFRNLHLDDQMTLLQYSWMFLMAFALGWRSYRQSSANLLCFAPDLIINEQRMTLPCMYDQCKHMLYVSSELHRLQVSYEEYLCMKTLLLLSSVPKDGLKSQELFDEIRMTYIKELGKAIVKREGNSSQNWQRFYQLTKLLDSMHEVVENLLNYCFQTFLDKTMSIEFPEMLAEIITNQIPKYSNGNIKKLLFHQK

Structure (SMILES) | IC50 (Progesterone receptor) | other results
C/C(=N/O)c1ccc(-c2ccc(C#N)n2C)cc1 | 108 nM | 
Cn1c(C#N)ccc1-c1ccc(C(O)c2cccs2)cc1 (stereo not drawn) | 47 nM | 
Cn1c(C#N)ccc1-c1ccc2c(c1)CCCC2(O)c1ccccc1 (stereo not drawn) | 35 nM | 
Cn1c(C#N)ccc1-c1ccc(C(O)c2ccccc2)cc1 (stereo not drawn) | 118 nM | 
CC(=O)c1ccc(-c2ccc(C#N)n2C)cc1 | 800 nM | 
CC(O)c1ccc(-c2ccc(C#N)n2C)cc1 (stereo not drawn) | 36 nM | 
Cn1c(C#N)ccc1-c1ccc(C(=O)C(C)(C)C)cc1 | 3 nM | inhibition [1]: inactive; IC50 (Androgen receptor): 100 nM; inhibition [2]: inactive; inhibition [3]: inactive

More lines, main results first:

IC50 (Progesterone receptor) | Structure (SMILES) | other results
28 nM | Cn1c(C#N)ccc1-c1ccc2c(c1)CCCC2=O | 
17 nM | CC/C(=N/O)c1ccc(-c2ccc(C#N)n2C)cc1 | 
7 nM | Cn1c(C#N)ccc1-c1ccc2c(c1)CCCC2O (stereo not drawn) | 
33 nM | Cn1c(C#N)ccc1-c1ccc2c(c1)CCC/C2=N/O | 
6 nM | Cn1c(C#N)ccc1-c1ccc2c(c1)CCCC2(C)O (stereo not drawn) | 
27 nM | CCC(O)c1ccc(-c2ccc(C#N)n2C)cc1 (stereo not drawn) | 
3 nM | Cn1c(C#N)ccc1-c1ccc(/C(=N\O)C(C)(C)C)cc1 | inhibition [1]: inactive; IC50 (Androgen receptor): 165 nM; inhibition [2]: inactive; inhibition [3]: inactive
10 nM | CC#CC1(O)CCCc2cc(-c3ccc(C#N)n3C)ccc21 (stereo not drawn) | 
